We go through three compounds from patent publication US20100029761A1, “NOVEL COMPOUNDS, PHARMACEUTICAL COMPOSITIONS CONTAINING SAME, AND METHODS OF USE FOR SAME” (priority 2005, published 2010).

“And” between values parts separate entries of the source, which are not always exact repeats. Identical values can stand only once.

In experiment [1] the test system is Mycobacterium tuberculosis. To be noted: in vitro; cited from earlier work.
A further experiment addresses viral HIV protease (Human immunodeficiency virus type 1 group M subtype B, UniProt P04585). Particulars: cited from earlier work.
A further experiment relates to Raji cells. Particulars: cited from earlier work.
For experiment [2], the target named is rat liver acyl-CoA synthetase. Particulars: read-out: 50% inhibition of rat liver acyl-CoA synthetase; cited from earlier work.
For experiment [3], the system named is β-Oxidation of (1-14C) palmitic acid in cells. Put plainly: β-Oxidation assay, isolation of acid soluble products. Also noted: unit not given here. Type of experiment: cell-based. The method, then: A 24 well plate with 1 ml per well was prepared with 2.5×10^5 cells /well. The cells were incubated O/N. The next day, a solubilized palmitate solution was prepared. 50 μls of (1−^14C) Palmitic acid was added to a 2 ml centrifuge tube and dried under nitrogen gas. 2 mls of α-CD (α-Cyclodextran)—10 mg/ml in 10 mM Tris were added. This solution was incubated in a 37° C. water bath for 30 minutes. A hot mix was prepared by adding 25 μl of this solution to 2.5 μls of 200 μM Carnitine and 222.5 μl of serum free medium that is used for cells. The cells were then treated with the test compound in triplicate, and incubated. at 37° C. for 60 minutes. The medium was removed and 250 μl of the hot mix were added. The test compound was added again, and further incubated at 37° C. for 60 minutes. The reaction was stopped with 50 μl of 2.6 N HClO4. The contents of the plate were transferred to a 1.5 ml centrifuge tube, and 50 μl of 4N KOH were then added, and the tube incubated in a 60° C. water bath for 30 min. Sodium acetate (1 M, 75 μl) and sulfuric acid (3N, 50 μl) were added to the solution and vortexed. The tube was spun for 7 minutes at 1000 rpm at room temperature. A portion (225 μl) was removed, and the following were added (vortex after each addition, twice at the end): 938 μl of 1:1 Chloroform: Methanol; 468 μl of Chloroform; 281 μl distilled Water. The tubes were spun at 1000 rpm for 5 minutes. The upper phase was removed into a large glass scintillation vial and 5 ml of Budget solvent (scintillation liquid) was added. The tubes were well vortexed. Finally, ^14C was counted for one minute.

With `C/C=C/C/C=C/CCC(=O)[C@H]1O[C@H]1C(N)=O` [cerulenin, (2s, 3R)-2,3-epoxy-4-oxo-7,10 dodecadienoyl amide], the “activity against Mycobacterium tuberculosis” value in experiment [1] is “no activity”. For the same compound, the “concentration for inhibition of viral HIV protease” value on viral HIV protease was 5 mg/mL.

In the case of `CCCC=CCC=CC=CC=NN=NO` [Triacsin C, 1-hydroxy-3-(E, E, E-2′,4′,7′-undecatrienylidine) triazene], the “concentration causing growth inhibition in Raji cells” value with Raji cells is 1.0 µM. Moreover, in experiment [2], the IC50 was 8.7 µM.

`CCCCCCCCC1OC(=O)C(O)=C1C(=O)OCC` (stereo not shown) [Compound 1]: the Beta oxidation in experiment [3] (0.04 ug/ml) is 94 and 103 and 120; in experiment [3] (0.19 ug/ml) it was 108 and 104 and 113; in experiment [3] (3.13 ug/ml), 113 and 109 and 107; in experiment [3] (12.5 ug/ml), 114 and 107 and 100; in experiment [3] (50 ug/ml), 54 and 49 and 45; in experiment [3] (.78 ug/ml) it was 104 and 106.
